Each block holds one compound with its values, some of them ahead of it.
Tests used:
CDK2/Cyclin E1 = CDK2/Cyclin E1 (Homo sapiens, UniProt P24941); assay: CDK2/Cyclin E1 Biochemical Assay (TR-FRET), 0.060 mM ATP; details: 0.15 μM Rb (Ser780)-biotin substrate, pH7.0, 60 min preincubation, 120 min reaction, room temperature
In short: (§1)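 TR-FRET readout: 665/620 nm ratio from Eu-cryptate anti-pRb(Ser780) antibody plus streptavidin-XL665, converted to % inhibition and fitted (4-parameter logistic) for IC50. Reactions used 0.15 μM biotinylated Rb (Ser780) substrate, compound 0–10 μM, 60 min enzyme–compound preincubation, then 120 min reaction at room temperature.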

CDK1/Cyclin B1 = CDK1/Cyclin B1 (Homo sapiens, UniProt P06493); assay: CDK1/Cyclin B1 Biochemical Assay (TR-FRET), 0.015 mM ATP; details: 0.15 μM Rb (Ser780)-biotin substrate, pH7.0, 60 min preincubation, 120 min reaction, room temperature
In short: as §1

Sequence of CDK1/Cyclin B1 (P06493 whole entry): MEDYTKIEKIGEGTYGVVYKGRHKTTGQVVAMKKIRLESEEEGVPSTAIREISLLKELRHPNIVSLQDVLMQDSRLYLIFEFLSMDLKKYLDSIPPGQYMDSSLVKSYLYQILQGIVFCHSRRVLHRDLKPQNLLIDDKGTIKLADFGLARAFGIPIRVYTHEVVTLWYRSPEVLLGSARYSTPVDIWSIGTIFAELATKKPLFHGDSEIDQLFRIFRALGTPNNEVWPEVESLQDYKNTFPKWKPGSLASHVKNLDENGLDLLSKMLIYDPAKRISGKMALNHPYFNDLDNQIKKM
Sequence of CDK1/Cyclin B1 (P14635 whole entry partner): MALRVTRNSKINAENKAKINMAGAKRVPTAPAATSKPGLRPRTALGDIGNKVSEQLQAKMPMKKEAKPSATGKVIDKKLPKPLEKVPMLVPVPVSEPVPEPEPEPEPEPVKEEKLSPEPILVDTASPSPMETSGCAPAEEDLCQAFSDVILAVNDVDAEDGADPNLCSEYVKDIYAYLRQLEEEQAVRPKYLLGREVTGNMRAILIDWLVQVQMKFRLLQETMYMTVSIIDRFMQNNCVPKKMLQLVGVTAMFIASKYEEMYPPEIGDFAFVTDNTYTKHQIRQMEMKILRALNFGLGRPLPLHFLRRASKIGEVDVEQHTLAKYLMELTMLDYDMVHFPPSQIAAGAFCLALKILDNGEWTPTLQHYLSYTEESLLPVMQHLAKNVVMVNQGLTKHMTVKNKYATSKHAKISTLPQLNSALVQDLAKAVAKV

Compound: COc1c(Nc2cc([C@@H]3CC[C@H](OC(=O)NC(C)C)C3)[nH]n2)ccc2c1CNS2(=O)=O (relative stereo) [Example 10, cis-3-(3-((4-methoxy-1,1-dioxido-2,3-dihydrobenzo[d]isothiazol-5-yl)amino)-1H-pyrazol-5-yl)cyclopentyl isopropylcarbamate]
IC50 (CDK2/Cyclin E1): 102 nM
IC50 (CDK1/Cyclin B1): 3020 nM

Compound: CC(C)NC(=O)O[C@H]1CC[C@@H](c2cc(Nc3cc4c(cc3OC(F)(F)F)S(=O)(=O)NC4)n[nH]2)C1 (relative stereo) [Example 28, cis-3-(3-((1,1-dioxido-6-(trifluoromethoxy)-2,3-dihydrobenzo[d]isothiazol-5-yl)amino)-1H-pyrazol-5-yl)cyclopentyl isopropylcarbamate]
IC50 (CDK2/Cyclin E1): 1260 nM
IC50 (CDK1/Cyclin B1): > 10000 nM

Compound: [2H]C([2H])([2H])N1Cc2c(ccc(Nc3cc([C@H]4CC[C@@H](OC(=O)NC5(C)CC5)C4)[nH]n3)c2F)S1(=O)=O (racemic) [Example 132, cis-3-(3-((4-fluoro-2-(methyl-d3)-1,1-dioxido-2,3-dihydrobenzo[d]isothiazol-5-yl)amino)-1H-pyrazol-5-yl)cyclopentyl(1-methylcyclopropyl)carbamate]
IC50 (CDK2/Cyclin E1): 1.6 nM
IC50 (CDK1/Cyclin B1): 104 nM

Compound: CC(C)NC(=O)O[C@H]1CC[C@@H](c2cc(Nc3cc4c(cc3F)C(C)(C)NS4(=O)=O)n[nH]2)C1 (relative stereo) [Example 8, cis-3-(3-((5-fluoro-3,3-dimethyl-1,1-dioxido-2,3-dihydrobenzo[d]isothiazol-6-yl)amino)-1H-pyrazol-5-yl)cyclopentyl isopropylcarbamate]
IC50 (CDK2/Cyclin E1): 121 nM
IC50 (CDK1/Cyclin B1): 1540 nM

Compound: CC1(NC(=O)O[C@H]2CC[C@@H](c3cc(Nc4ccc5c(c4F)CN(C4CC4)S5(=O)=O)n[nH]3)C2)CC1 (single isomer, unassigned) [Example 119b, cis-3-(3-((2-cyclopropyl-4-fluoro-1,1-dioxido-2,3-dihydrobenzo[d]isothiazol-5-yl)amino)-1H-pyrazol-5-yl)cyclopentyl(1-methylcyclopropyl)carbamate]
IC50 (CDK2/Cyclin E1): 1.9 nM
IC50 (CDK1/Cyclin B1): 114 nM

Compound: CC(C)NC(=O)O[C@H]1CC[C@@H](c2cc(Nc3ccc4c(c3F)CN(C3CCCNC3=O)S4(=O)=O)n[nH]2)C1 (relative stereo) [Example 86, cis-3-(3-((4-fluoro-1,1-dioxido-2-(2-oxopiperidin-3-yl)-2,3-dihydrobenzo[d]isothiazol-5-yl)amino)-1H-pyrazol-5-yl)cyclopentyl isopropylcarbamate]
IC50 (CDK2/Cyclin E1): 7.8 nM
IC50 (CDK1/Cyclin B1): 735 nM

Compound: COCC1(NC(=O)O[C@H]2CC[C@@H](c3cc(Nc4ccc5c(c4F)CN(C)S5(=O)=O)n[nH]3)C2)CC1 (relative stereo) [Example 344, cis-3-(3-((4-fluoro-2-methyl-1,1-dioxido-2,3-dihydrobenzo[d]isothiazol-5-yl)amino)-1H-pyrazol-5-yl)cyclopentyl(1-(methoxymethyl)cyclopropyl)carbamate]
IC50 (CDK2/Cyclin E1): 6.4 nM
IC50 (CDK1/Cyclin B1): 626 nM

Compound: CC(C)NC(=O)O[C@H]1CC[C@@H](c2cc(Nc3ccc4c(c3F)S(=O)(=O)N(CCO)C4)n[nH]2)C1 (relative stereo) [Example 192, cis-3-(3-((7-fluoro-2-(2-hydroxyethyl)-1,1-dioxido-2,3-dihydrobenzo[d]isothiazol-6-yl)amino)-1H-pyrazol-5-yl)cyclopentyl isopropylcarbamate]
IC50 (CDK2/Cyclin E1): 6 nM
IC50 (CDK1/Cyclin B1): 116 nM

Compound: CC(C)NC(=O)O[C@H]1CC[C@@H](c2cc(Nc3ccc4c(c3F)C(C)NS4(=O)=O)n[nH]2)C1 (single isomer, unassigned) [Example 51c, cis-3-(3-((4-fluoro-3-methyl-1,1-dioxido-2,3-dihydrobenzo[d]isothiazol-5-yl)amino)-1H-pyrazol-5-yl)cyclopentyl isopropylcarbamate]
IC50 (CDK2/Cyclin E1): 2.1 nM
IC50 (CDK1/Cyclin B1): 106 nM

Compound: CN1c2ccc(Nc3cc([C@@H]4CC[C@H](OC(=O)NC(C)(C)CO)C4)[nH]n3)cc2CS1(=O)=O (single isomer, unassigned) [Example 325b, cis-3-(3-((1-methyl-2,2-dioxido-1,3-dihydrobenzo[c]isothiazol-5-yl)amino)-1H-pyrazol-5-yl)cyclopentyl(1-hydroxy-2-methylpropan-2-yl)carbamate]
IC50 (CDK2/Cyclin E1): 2.3 nM
IC50 (CDK1/Cyclin B1): 71 nM

Compound: CC(C)NC(=O)O[C@H]1CC[C@@H](c2cc(Nc3ccc4c(c3F)CS(=O)(=O)N4CC(F)(F)F)n[nH]2)C1 (single isomer, unassigned) [Example 263a, cis-3-(3-((4-fluoro-2,2-dioxido-1-(2,2,2-trifluoroethyl)-1,3-dihydrobenzo[c]isothiazol-5-yl)amino)-1H-pyrazol-5-yl)cyclopentyl isopropylcarbamate]
IC50 (CDK2/Cyclin E1): 2.1 nM
IC50 (CDK1/Cyclin B1): 70 nM

Next, values leading:

IC50 (CDK2/Cyclin E1): 3.3 nM
IC50 (CDK1/Cyclin B1): 83 nM
Compound: C[C@@H](CO)NC(=O)O[C@H]1CC[C@@H](c2cc(Nc3ccc4c(c3)CS(=O)(=O)N4C)n[nH]2)C1 (relative stereo) [Example 324, cis-3-(3-((1-methyl-2,2-dioxido-1,3-dihydrobenzo[c]isothiazol-5-yl)amino)-1H-pyrazol-5-yl)cyclopentyl((S)-1-hydroxypropan-2-yl)carbamate]

IC50 (CDK2/Cyclin E1): 9.5 nM
IC50 (CDK1/Cyclin B1): 758 nM
Compound: CC(C)NC(=O)O[C@H]1CC[C@@H](c2cc(Nc3ccc4c(c3F)CN(C3CCN(C)CC3)S4(=O)=O)n[nH]2)C1 (relative stereo) [Example 62, cis-3-(3-((4-fluoro-2-(1-methylpiperidin-4-yl)-1,1-dioxido-2,3-dihydrobenzo[d]isothiazol-5-yl)amino)-1H-pyrazol-5-yl)cyclopentyl isopropylcarbamate]

IC50 (CDK2/Cyclin E1): 6.9 nM
IC50 (CDK1/Cyclin B1): 154 nM
Compound: O=C(NC1CCCC1)O[C@@H]1CC[C@H](c2cc(Nc3ccc4c(c3F)CS(=O)(=O)N4)n[nH]2)C1 (single isomer, unassigned) [Example 400a]

IC50 (CDK2/Cyclin E1): 1.1 nM
IC50 (CDK1/Cyclin B1): 186 nM
Compound: CC1(NC(=O)O[C@H]2CC[C@@H](c3cc(Nc4ccc5c(c4F)CNS5(=O)=O)n[nH]3)C2)CCOC1 (single isomer, unassigned) [Example 162b, cis-3-(3-((4-fluoro-1,1-dioxido-2,3-dihydrobenzo[d]isothiazol-5-yl)amino)-1H-pyrazol-5-yl)cyclopentyl(3-methyltetrahydrofuran-3-yl)carbamate]

IC50 (CDK2/Cyclin E1): 10 nM
IC50 (CDK1/Cyclin B1): 1020 nM
Compound: CC(C)CN1Cc2c(ccc(Nc3cc([C@@H]4CC[C@H](OC(=O)NC(C)C)C4)[nH]n3)c2F)S1(=O)=O (relative stereo) [Example 101, cis-3-(3-((4-fluoro-2-isobutyl-1,1-dioxido-2,3-dihydrobenzo[d]isothiazol-5-yl)amino)-1H-pyrazol-5-yl)cyclopentyl isopropylcarbamate]

IC50 (CDK2/Cyclin E1): 0.9 nM
IC50 (CDK1/Cyclin B1): 36.1 nM
Compound: CC(C)NC(=O)O[C@H]1CC[C@@H](c2cc(Nc3ccc4c(c3)CNS4(=O)=O)n[nH]2)C1 (relative stereo) [Example 2, cis-3-(3-((1,1-dioxido-2,3-dihydrobenzo[d]isothiazol-5-yl)amino)-1H-pyrazol-5-yl)cyclopentyl isopropylcarbamate]

IC50 (CDK2/Cyclin E1): 4.3 nM
IC50 (CDK1/Cyclin B1): 320 nM
Compound: CC1(NC(=O)O[C@H]2CC[C@@H](c3cc(Nc4ccc5c(c4F)CN(C4COC4)S5(=O)=O)n[nH]3)C2)CC1 (relative stereo) [Example 135, cis-3-(3-((4-fluoro-2-(oxetan-3-yl)-1,1-dioxido-2,3-dihydrobenzo[d]isothiazol-5-yl)amino)-1H-pyrazol-5-yl)cyclopentyl(1-methylcyclopropyl)carbamate]

— patent US20260297080A1, “BICYCLIC COMPOUNDS AS CDK INHIBITORS” (BeOne Medicines I GmbH, priority 2022, published 2026)
